Each structure is given as a SMILES string. pIC50: −log10 of the molar value. The source made the active and inactive calls. The calls are words filed in the database; no cut-off is given here.

The target of test [1] is T1, Indoleamine 2,3-dioxygenase 1 (Homo sapiens, UniProt P14902). The test can be described thus: Inhibition of N-terminal His-tagged recombinant human IDO1 extracted from Escherichia coli Transetta (DE3) using L-tryptophan as substrate preincubated for 5 mins followed by substrate addition and measured after 1 hrs by absorbance based microplate reader.
Target sequence in this assay (P14902 whole entry): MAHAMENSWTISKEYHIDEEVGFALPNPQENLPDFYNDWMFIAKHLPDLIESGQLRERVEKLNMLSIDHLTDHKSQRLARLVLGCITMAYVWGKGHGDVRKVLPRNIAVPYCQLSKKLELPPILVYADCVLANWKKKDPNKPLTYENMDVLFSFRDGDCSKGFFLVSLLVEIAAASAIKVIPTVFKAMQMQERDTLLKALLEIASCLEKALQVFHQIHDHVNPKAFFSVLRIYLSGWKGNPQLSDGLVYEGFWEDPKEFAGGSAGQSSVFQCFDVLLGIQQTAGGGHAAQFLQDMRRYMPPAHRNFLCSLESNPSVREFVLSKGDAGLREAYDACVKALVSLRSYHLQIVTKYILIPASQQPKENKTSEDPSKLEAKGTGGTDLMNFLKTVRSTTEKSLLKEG
For test [2], the target named is T2, Tryptophan 2,3-dioxygenase (Homo sapiens, UniProt P48775).
Target sequence in this assay (P48775 whole entry): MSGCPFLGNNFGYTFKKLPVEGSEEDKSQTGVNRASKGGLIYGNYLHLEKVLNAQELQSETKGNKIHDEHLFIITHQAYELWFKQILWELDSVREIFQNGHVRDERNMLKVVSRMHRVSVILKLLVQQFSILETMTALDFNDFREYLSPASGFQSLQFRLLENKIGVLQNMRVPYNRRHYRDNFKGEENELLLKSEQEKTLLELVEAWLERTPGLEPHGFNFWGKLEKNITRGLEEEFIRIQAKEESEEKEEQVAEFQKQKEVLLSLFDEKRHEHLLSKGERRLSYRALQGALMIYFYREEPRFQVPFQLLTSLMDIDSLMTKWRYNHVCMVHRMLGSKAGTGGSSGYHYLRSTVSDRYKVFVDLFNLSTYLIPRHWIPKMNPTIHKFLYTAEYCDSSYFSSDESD
Test [3] deals with T1, Indoleamine 2,3-dioxygenase 1. Kind of test: Inhibition of IDO1 in IFN-gamma induced human HeLa cells using L-tryptophan as substrate incubated for 24 hrs by absorbance based microplate analysis. The class given is cell-based.
Target sequence in this assay (P14902 whole entry): as the sequence (P14902 whole entry) above
For test [4], the target named is T2, Tryptophan 2,3-dioxygenase. This is another data set of the same source.
Target sequence in this assay (P48775 whole entry): as the sequence (P48775 whole entry) above
The target of test [5] is T1, Indoleamine 2,3-dioxygenase 1. The test can be described thus: Inhibition of IDO1 (unknown origin).
Test [6] addresses T2, Tryptophan 2,3-dioxygenase. The test can be described thus: Inhibition of TDO (unknown origin).

In the case of `COc1ccc2nc(-c3ccccc3)ncc2c1O`, the pIC50 in test [1] and in test [2] was < 4.00 each time.

`COc1ccc2cc(-c3ccc(Br)cc3)ncc2c1OC`: the pIC50 (as a rule, the IC50 on a negative log10 scale, so that one unit is a factor of ten) in test [1] was 4.10; in test [2] it was 4.46.

Turning to `COc1ccc2cc(-c3ccc(NC(C)=O)cc3)ncc2c1O`, the pIC50 in test [1] was 5.68; in test [3], < 4.52; in test [2], 6.46; in test [4], < 4.52.

As for `COc1ccc2cc(-c3ccc(NC(=O)Nc4ccccc4)cc3)ncc2c1O`, the figures for the pIC50 in test [1] and in test [2] were 4.30 and 4.84, respectively.

As to `COc1ccc2cc(-c3cccs3)ncc2c1OC`, the negative-log IC50 (pIC50) in test [1] is 4.95; in test [2], 5.54.

For the molecule `Oc1ccc2cc(-c3ccc4c(c3)OCO4)ncc2c1`, the negative logarithm of the IC50 (pIC50) in test [1] and in test [2] was < 4.00 throughout.

For `Oc1cccc2cc(-c3ccccc3)ncc12`, the values for the negative-log IC50 (pIC50) in test [1] and in test [2] were 4.15 and 4.60, respectively.

As to `COc1ccc2cc(-c3ccc(NC(=O)c4ccc(F)cc4)cc3)ncc2c1O`, the negative logarithm of the IC50 (pIC50) in test [1] and in test [2] was < 4.00 throughout.

As to `COc1ccc2cc(-c3ccc(NC(=O)c4ccc(C)cc4)cc3)ncc2c1O`, the negative-log IC50 (pIC50) was < 4.00 in test [1] and 4.34 in test [2].

On to `COc1ccc2cc(-c3ccc(NS(=O)(=O)N4CCCCC4)cc3)ncc2c1O`, for which the pIC50 in test [1] is 4.81; in test [2] it was 5.10.

Regarding `COc1ccc2cc(-c3cccs3)ncc2c1O`, the pIC50 in test [1] is 4.68; in test [2] it was 5.99.

As to `COc1ccc2cc(-c3ccc(NC(=O)C(F)(F)F)cc3)ncc2c1O`, the values for the negative logarithm of the IC50 (pIC50) in test [1] and in test [2] were 5.21 and 5.94, respectively.

`COc1ccc2cc(-c3ccc(C)cc3)ncc2c1O`: the pIC50 in test [1] and in test [2] was < 4.00 throughout.

Take `COc1ccc2cc(-c3ccc(NC(=O)c4ccc(C(F)(F)F)cc4)cc3)ncc2c1O`: the pIC50 was < 4.00 in test [1] and 5.49 in test [2].

Consider `COc1ccc2cc(-c3ccc(NC(=O)c4ccccc4)cc3)ncc2c1O`, for which the negative-log IC50 (pIC50) is 5.35 in test [1], < 4.52 in test [3], 6.72 in test [2] and 4.84 in test [4].

As for `COc1ccc(-c2ncc3c(O)c(OC)ccc3n2)cc1`, the pIC50 in test [1] and in test [2] was < 4.00 each time.

Regarding `COc1ccc2cc(-c3ccc(NS(C)(=O)=O)cc3)ncc2c1O`, the pIC50 in test [1] is 5.91; in test [3], 4.64; in test [2], 6.70; in test [4], 4.83.

Consider `COc1ccc2cc(-c3cc4ccccc4o3)ncc2c1OC`, for which the pIC50 in test [1] and in test [2] was < 4.00 in each case.

Take `COc1ccc2cc(-c3ccc(C(F)(F)F)cc3)ncc2c1O`: the pIC50 in test [1] was 4.82; in test [2], 5.14.

With `COc1ccc2cc(-c3ccc(C)cc3)ncc2c1OC`, the pIC50 in test [1] and in test [2] was < 4.00 throughout.

In the case of `COc1cccc(C(=O)Nc2ccc(-c3cc4ccc(OC)c(O)c4cn3)cc2)c1`, the pIC50 is 4.85 in test [1] and 5.39 in test [2].

Regarding `COc1ccc2nc(-c3ccccc3)ccc2c1O`, the pIC50 in test [1] is < 4.00; in test [2], 5.25.

As to `COc1ccc(-c2cc3ccc(OC)c(OC)c3cn2)cc1`, the pIC50 in test [1] is 4.95; in test [2], 5.57.

For the molecule `COc1ccc2cc(-c3ccc(NS(=O)(=O)C4CC4)cc3)ncc2c1O`, the values for the pIC50 in test [1] and in test [2] were 5.34 and 5.47, respectively.

With `COc1ccc2cc(C34C[C@H]5C[C@@H](C3)C[C@@H](C4)C5)ncc2c1OC`, the pIC50 was 4.75 in test [1] and 5.58 in test [2].

Turning to `COc1ccc(-c2cc3ccc(OC)c(O)c3cn2)cc1`, the negative logarithm of the IC50 (pIC50) was 6.15 in test [1], 4.80 in test [3], 6.35 in test [2] and < 4.52 in test [4].

For `COc1ccc2cc(-c3cccnc3)ncc2c1OC`, the pIC50 in test [1] and in test [2] was < 4.00 throughout.

As for `COc1ccc2cc(-c3ccc4ncsc4c3)ncc2c1OC`, the pIC50 in test [1] and in test [2] was < 4.00 each time.

`COc1ccc2cc(-c3ccc(C(C)(C)C)cc3)ncc2c1OC`: the pIC50 in test [1] was < 4.00; in test [2], 4.64.

For the molecule `COc1ccc2cc(-c3ccc4c(c3)OCO4)ncc2c1O`, the negative logarithm of the IC50 (pIC50) in test [1] was 5.29; in test [3], < 4.52; in test [2] it was 6.55; in test [4], 4.59.

As for `COc1ccc2cc(-c3ccccc3)ncc2c1OC`, the pIC50 in test [1] was 5.11; in test [3], < 4.52; in test [2], 6.47; in test [4], < 4.52.

Turning to `COc1ccc2cc3[n+](cc2c1OC)CCc1cc2c(cc1-3)OCO2` [BERBERINE], the pIC50 in test [5] is 6.59; in test [6] it was 7.52.

Consider `COc1ccc2cc(-c3ccc(F)cc3)ncc2c1O`, for which the pIC50 was < 4.00 in test [1] and 4.29 in test [2].

Take `COc1ccc(-c2ccc3c(O)c(OC)ccc3n2)cc1`: the pIC50 in test [1] and in test [2] was < 4.00 throughout.

For the molecule `COc1ccc2cc(-c3ccc(NC(=O)C(C)(C)C)cc3)ncc2c1O`, the figures for the pIC50 in test [1] and in test [2] were 5.55 and 5.92, respectively.

Turning to `COc1ccc2cc(-c3ccc(C(=O)Nc4ccccc4)cc3)ncc2c1O`, the negative-log IC50 (pIC50) in test [1] was 5.00; in test [3] it was < 4.52; in test [2], 6.60; in test [4], 4.65.

`COc1ccc2cc(-c3ccc(F)cc3)ncc2c1OC`: the pIC50 in test [1] is 4.37; in test [2], 5.04.

On to `COc1ccc2cc3[n+](cc2c1O)CCc1cc2c(cc1-3)OCO2`, for which the inhibition result in test [5] and in test [6] was “Active” each time.

With `COc1ccc2cc(-c3ccccc3)ncc2c1O`, the pIC50 in test [1] was 6.05; in test [3] it was 4.77; in test [2], 6.62; in test [4] it was 4.62.

The values are drawn from ChEMBL document CHEMBL5614442, “Discovery, synthesis and biological evaluation of novel isoquinoline derivatives as potent indoleamine 2, 3-dioxygenase 1 and tryptophan 2, 3-dioxygenase dual inhibitors” (Eur J Med Chem, 2024).
